Test results as given in PubChem BioAssay AID248 (DTP/NCI, 2004).
Several values for one entry are separate records, joined by “and”; a condition that tells them apart may be missing. Identical values can stand only once. Inconclusive results and toxic doses are left out. Cut-off read from the data, not from the text of the source: active = T/C of 150% or more; inactive = T/C below 125%. Square brackets hold non-standard residues; d marks the D form. Peptide text beside a SMILES is read from it. * marks the point of attachment. ξ: configuration not given here. ξE = NC(CCC(=O)O)C(=O)O; Cbz = O=C(OCc1ccccc1)*

Test system: L1210 leukemia ip in BDF1 mice, survival T/C
Assay: NCI In Vivo Anticancer Drug Screen. Data for tumor model L1210 Leukemia (intraperitoneal) in B6D2F1 (BDF1) mice
Details: endpoint: mean survival time, higher = longer survival
How it was run: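 Transplanted-tumor mice were given test agent; controls received vehicle only. Survival readings from the two groups were divided (treated over control).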

[1] = dose: 50.0 mg/kg/injection, schedule: Q01DX009 (ip), vehicle: Klucel (hydroxypropylcellulose) (HPC)
[2] = dose: 100.0 mg/kg/injection, schedule: Q04DX003 (ip), vehicle: Klucel (hydroxypropylcellulose) (HPC)
[3] = dose: 200.0 mg/kg/injection, schedule: Q04DX003 (ip), vehicle: Klucel (hydroxypropylcellulose) (HPC)
[4] = dose: 100.0 mg/kg/injection, schedule: Q01DX009 (ip), vehicle: saline with Tween-80
[5] = dose: 200.0 mg/kg/injection, schedule: Q01DX009 (ip), vehicle: saline with Tween-80
[6] = dose: 400.0 mg/kg/injection, schedule: Q01DX009 (ip), vehicle: saline with Tween-80
[7] = dose: 75.0 mg/kg/injection, schedule: Q01DX001 (ip), vehicle: saline
[8] = dose: 150.0 mg/kg/injection, schedule: Q01DX001 (ip), vehicle: saline
[9] = dose: 300.0 mg/kg/injection, schedule: Q01DX001 (ip), vehicle: saline
[10] = dose: 400.0 mg/kg/injection, schedule: Q04DX003 (ip), vehicle: Klucel (hydroxypropylcellulose) (HPC)
[11] = dose: 100.0 mg/kg/injection, schedule: Q04DX003 (ip), vehicle: saline with Tween-80
[12] = dose: 200.0 mg/kg/injection, schedule: Q04DX003 (ip), vehicle: saline with Tween-80
[13] = dose: 400.0 mg/kg/injection, schedule: Q04DX003 (ip), vehicle: saline with Tween-80
[14] = dose: 100.0 mg/kg/injection, schedule: Q01DX009 (ip), vehicle: Klucel (hydroxypropylcellulose) (HPC)
[15] = dose: 200.0 mg/kg/injection, schedule: Q01DX009 (ip), vehicle: Klucel (hydroxypropylcellulose) (HPC)
[16] = dose: 100.0 mg/kg/injection, schedule: Q04DX002 (ip), vehicle: Klucel (hydroxypropylcellulose) (HPC)
[17] = dose: 200.0 mg/kg/injection, schedule: Q04DX002 (ip), vehicle: Klucel (hydroxypropylcellulose) (HPC)
[18] = dose: 400.0 mg/kg/injection, schedule: Q04DX002 (ip), vehicle: Klucel (hydroxypropylcellulose) (HPC)
[19] = dose: 400.0 mg/kg/injection, schedule: Q01DX009 (ip), vehicle: Klucel (hydroxypropylcellulose) (HPC)

Measured: T/C

O=S(=O)(O)c1cc(O)c2c(O)c(N=Nc3ccccc3[As](=O)(O)O)c(S(=O)(=O)O)cc2c1
inactive: dose: 50.0 mg/kg/injection, schedule: Q04DX003 (ip), vehicle: saline 102 % of control | dose: 100.0 mg/kg/injection, schedule: Q04DX003 (ip), vehicle: saline 98 % of control and 99 % of control | dose: 200.0 mg/kg/injection, schedule: Q04DX003 (ip), vehicle: saline 103 % of control and 120 % of control | dose: 400.0 mg/kg/injection, schedule: Q04DX003 (ip), vehicle: saline 101 % of control and 103 % of control

O=C(CN1CCCCC1)c1ccc(/C=C/c2ccc(Cl)cc2)cc1
inactive: dose: 12.5 mg/kg/injection, schedule: Q01DX009 (ip), vehicle: Klucel (hydroxypropylcellulose) (HPC) 93 % of control | dose: 25.0 mg/kg/injection, schedule: Q01DX009 (ip), vehicle: Klucel (hydroxypropylcellulose) (HPC) 97 % of control | [1] 87 % of control and 88 % of control | [2] 88 % of control | [3] 88 % of control

CCCCCCCCCCCCCCCCS(=O)(=O)CCO
inactive: [4] 98 % of control | [5] 93 % of control | [6] 92 % of control

CC/C(=N\NS(=O)(=O)c1ccc(C)cc1)C(C)C
inactive: [7] 95 % of control | dose: 75.0 mg/kg/injection, schedule: Q04DX003 (ip), vehicle: saline 91 % of control | [8] 95 % of control | dose: 150.0 mg/kg/injection, schedule: Q04DX003 (ip), vehicle: saline 100 % of control | [9] 97 % of control | dose: 300.0 mg/kg/injection, schedule: Q04DX003 (ip), vehicle: saline 96 % of control

O=[N+]([O-])c1cccc(S(=O)(=O)NNc2cccc(Cl)c2)c1
inactive: [2] 94 % of control | [3] 94 % of control | [10] 98 % of control

CC([NH-])C(=O)O.CC([NH-])C(=O)O.CC([NH-])C(=O)O.[Co+3] (stereo not given)
inactive: dose: 25.0 mg/kg/injection, schedule: Q04DX002 (ip), vehicle: saline with Tween-80 115 % of control | dose: 50.0 mg/kg/injection, schedule: Q01DX009 (ip), vehicle: water 103 % of control | dose: 50.0 mg/kg/injection, schedule: Q04DX002 (ip), vehicle: saline with Tween-80 98 % of control | dose: 100.0 mg/kg/injection, schedule: Q01DX009 (ip), vehicle: water 118 % of control | dose: 100.0 mg/kg/injection, schedule: Q04DX002 (ip), vehicle: saline with Tween-80 115 % of control

CCCCCCCCOc1ccccn1
inactive: [4] 110 % of control | [11] 100 % of control | [5] 91 % of control | [12] 105 % of control | [13] 103 % of control

O=c1[nH][nH]c(=O)n1O
inactive: dose: 100.0 mg/kg/injection, schedule: Q01DX001 (ip), vehicle: saline with Tween-80 102 % of control | dose: 100.0 mg/kg/injection, schedule: Q01DX009 (ip), vehicle: acetone 105 % of control | [4] 91 % of control | dose: 100.0 mg/kg/injection, schedule: Q01DX009 (ip), vehicle: saline 94 % of control and 92 % of control | [11] 101 % of control and 109 % of control | dose: 130.0 mg/kg/injection, schedule: Q01DX009 (ip), vehicle: saline 89 % of control | dose: 200.0 mg/kg/injection, schedule: Q01DX001 (ip), vehicle: saline with Tween-80 106 % of control | [5] 88 % of control | [12] 102 % of control and 105 % of control | dose: 300.0 mg/kg/injection, schedule: Q01DX009 (ip), vehicle: saline 98 % of control and 89 % of control | dose: 400.0 mg/kg/injection, schedule: Q01DX001 (ip), vehicle: saline with Tween-80 104 % of control | dose: 400.0 mg/kg/injection, schedule: Q01DX009 (ip), vehicle: acetone 88 % of control | dose: 400.0 mg/kg/injection, schedule: Q01DX009 (ip), vehicle: saline 88 % of control | [13] 98 % of control and 89 % of control

[Se]=P(c1ccccc1)(c1ccccc1)c1ccccc1
inactive: [14] 103 % of control | [15] 90 % of control

CC1=C(Br)C(=O)C(C)=C(Br)C1=O
inactive: dose: 25.0 mg/kg/injection, schedule: Q04DX003 (ip), vehicle: other 95 % of control | dose: 50.0 mg/kg/injection, schedule: Q04DX003 (ip), vehicle: other 87 % of control | dose: 100.0 mg/kg/injection, schedule: Q04DX003 (ip), vehicle: other 100 % of control

CCOc1cc(OCC)c(/C=C/[N+](=O)[O-])c(OCC)c1
inactive: [16] 87 % of control | [17] 97 % of control | [18] 100 % of control

O=C(Oc1ccc([N+](=O)[O-])cc1)c1ccccc1S(=O)OCCc1ccccc1 (stereo not given)
inactive: dose: 100.0 mg/kg/injection, schedule: Q01DX001 (ip), vehicle: other 92 % of control | dose: 200.0 mg/kg/injection, schedule: Q01DX001 (ip), vehicle: other 95 % of control

c1ccc(C2(NC3=NCCO3)CCCCC2)cc1
inactive: dose: 10.0 mg/kg/injection, schedule: Q01DX009 (ip), vehicle: Klucel (hydroxypropylcellulose) (HPC) 101 % of control | dose: 20.0 mg/kg/injection, schedule: Q01DX009 (ip), vehicle: Klucel (hydroxypropylcellulose) (HPC) 97 % of control | dose: 40.0 mg/kg/injection, schedule: Q01DX009 (ip), vehicle: Klucel (hydroxypropylcellulose) (HPC) 101 % of control | dose: 75.0 mg/kg/injection, schedule: Q01DX009 (ip), vehicle: Klucel (hydroxypropylcellulose) (HPC) 107 % of control

CCOC(=O)c1cnn2c(=O)[nH]cnc12
inactive: [11] 98 % of control | [12] 109 % of control

Cc1c(Cl)cccc1NC(=O)COc1ccc(Cl)cc1
inactive: [14] 110 % of control | [2] 93 % of control | [15] 94 % of control | [3] 91 % of control | [19] 95 % of control | [10] 91 % of control

COC(=O)C(=O)CC(=O)c1ccc(Cl)cc1
inactive: [16] 100 % of control | [17] 106 % of control | [18] 95 % of control

Cn1ncc2c(N)[nH]nc21
inactive: [7] 107 % of control | [8] 90 % of control | [9] 98 % of control

ClCc1ccccc1CCl
inactive: dose: 5.0 mg/kg/injection, schedule: Q01DX015 (ip), vehicle: carboxymethylcellulose (CMC) 90 % of control | dose: 10.0 mg/kg/injection, schedule: Q01DX015 (ip), vehicle: carboxymethylcellulose (CMC) 87 % of control

O=C(CCN1C(=O)CCC1=O)NCCc1ccccc1
inactive: [4] 97 % of control | [5] 98 % of control | [6] 101 % of control

COc1c(NC(=O)Nc2ccc(F)c([N+](=O)[O-])c2)cccc1[N+](=O)[O-]
inactive: [14] 93 % of control | [15] 101 % of control | [19] 97 % of control

O=C(O)CCC(NC(=O)OCc1ccccc1)C(=O)NCC(=O)O (stereo not given) (Cbz-[ξE]-Gly-OH)
inactive: dose: 12.5 mg/kg/injection, schedule: Q04DX002 (ip), vehicle: saline 95 % of control | dose: 25.0 mg/kg/injection, schedule: Q04DX002 (ip), vehicle: saline 92 % of control | dose: 50.0 mg/kg/injection, schedule: Q04DX002 (ip), vehicle: saline 100 % of control

OC(c1ccccc1)(c1ccccc1)C1CCC1
inactive: [1] 100 % of control | dose: 75.0 mg/kg/injection, schedule: Q01DX001 (ip), vehicle: Klucel (hydroxypropylcellulose) (HPC) 95 % of control | [14] 94 % of control | dose: 150.0 mg/kg/injection, schedule: Q01DX001 (ip), vehicle: Klucel (hydroxypropylcellulose) (HPC) 101 % of control | dose: 300.0 mg/kg/injection, schedule: Q01DX001 (ip), vehicle: Klucel (hydroxypropylcellulose) (HPC) 98 % of control

CC(=O)OC1=C(C)CCCC(C)(C)C1
inactive: dose: 75.0 mg/kg/injection, schedule: Q01DX001 (ip), vehicle: other 92 % of control | dose: 150.0 mg/kg/injection, schedule: Q01DX001 (ip), vehicle: other 92 % of control | dose: 300.0 mg/kg/injection, schedule: Q01DX001 (ip), vehicle: other 97 % of control

CCOC(=O)C(C)C(O)c1ccc(OC)cc1 (stereo not given)
inactive: [4] 93 % of control | [5] 93 % of control

O=C(O)/C=C/C(=O)c1ccccc1
inactive: dose: 50.0 mg/kg/injection, schedule: Q01DX001 (ip), vehicle: carboxymethylcellulose (CMC) 109 % of control
